Measured values as given in US20260183283A1 (priority 2022, published 2026).

Key:
[1] = dog, in vivo
[2] = tested on: Pcca^−/−PCCA(A138T)^tg/0 mice; test: Survival of Pcca−/−PCCA(A138T)tg/0 mice; assay type: in vivo; conditions: 22.5 ppm (3 mg/kg) in chow; untreated ~51%
Text: (§1) Water was supplied ad libitum.
At postnatal day 90, the probability of survival of Pcca^−/−PCCA(A138T)^tg/0 mice was ˜51%.

in vivo [3] = conditions: female, rat
in vivo [4] = conditions: monkey
[5] = tested on: Pank1,2 neural knockout mice; test: Survival of Pank1,2 neural knockout mice; assay type: in vivo; conditions: 75 ppm in chow from postnatal day 14; untreated ~50%
Text: Water was supplied ad libitum. Mice were maintained on a chow diet with purified ingredients containing 19% kcal protein, 66.5% kcal carbohydrate and 14.4% kcal fat (Envigo #TD170542) which was similar to standard rodent chow (LabDiet #5013). The mice were randomized into the treatment arms. […] However, this is an approximation, as SynCre^+Pank1^−/−Pank2^−/− mice both weigh less and eat less than wild-type mice. […] At the end of the dark cycle, individual mice were placed in an open rectangular arena (36.8 cm×43.2 cm) for 5 min during the light cycle and motor activity was evaluated using a video tracking system provided by HVS Image with associated 2100 Plus software (San Diego, CA, USA). Each animal was placed in the center of the arena under standard overhead lighting and the total distance traveled and the percentage of time in motion were recorded. The behaviors of age-matched control animals, treated with Compound (I) and untreated, were quantified and compared. […] Liver, forebrain and hindbrain were quickly excised, approximately 30-50 mg pieces were immediately flash frozen in liquid N2 and stored frozen at −80° C. until analysis. The plasma and tissue samples were used for Compound (I) and total CoA determinations.
Following analysis of movement, all animals were sacrificed at postnatal Day 45 for examination of tissue CoA levels.

[6] = in vivo
Description: Holter monitoring will be obtained as indicated in the SOE. Blood and urine for PK and PD will be obtained and safety assessments will be performed. In addition, Cohort 3 (70 mg cohort) will have CSF obtained via lumbar puncture for PK assessment.

[7] = tested on: Pcca^−/−PCCA(A138T)^tg/0 mice; test: Acyl-CoA in liver, brain and heart of Pcca−/−PCCA(A138T)tg/0 mice; assay type: in vivo; conditions: 22.5 ppm (3 mg/kg) in chow for 30 days after weaning
Description: as §1
Acyl-CoA Measurements by Mass Spectrometry: Acyl-CoAs were quantified as described by Sharma et al., Nat. Commun. 2018; 9:4399. Briefly, 30-40 mg of tissue was homogenized in 2 mL methanol and 1 mL water and incubated on ice for 30 minutes. 1.5 mL of chloroform and 1.2 mL of water was added to remove the lipids. The aqueous top layer was collected and 30 pmol of [13C]acetyl-CoA (Sigma) was added and dried overnight in a speedvac.
Mass spectrometry of the acyl-CoA distribution was performed using a Finnigan TSQ Quantum (Thermo Electron) triple-quadrupole mass spectrometer. The instrument was operated in positive mode using single ion monitoring (SIM) neutral loss scanning corresponding to the loss of the phosphoadenosine diphosphate from CoA species. The ion source parameters were as follows: spray voltage, 4,000 V; capillary temperature, 250° C.; capillary offset, −35 V; sheath gas pressure, 10; auxiliary gas pressure, 5; and tube lens offset was set by infusion of the polytyrosine tuning and calibration in electrospray mode. Acquisition parameters were as follows: scan time, 0.5 s; collision energy, 30 V; peak width Q1 and Q3, 0.7 FWHM; Q2 CID gas, 0.5 mTorr; source CID, 10 V; neutral loss, 507.0 m/z; SIM mass of 810 m/z with a scan width of 8 m/z to capture the signal from cellular acetyl-CoA and the [13C]acetyl-CoA internal standard.

in vivo [8] = conditions: dog
[9] = tested on: SynCre^+Pank1^−/−Pank2^−/− mice; test: Neurometabolites by 1H MRS in SynCre+Pank1−/−Pank2−/− mice; assay type: in vivo; conditions: 10 mg/kg/day (75 ppm) in chow; midbrain 1H MRS at P45; normalized to total creatine; mean ± SD
Description: The ^1H MRS studies were performed on a Bruker Clinscan 7T magnetic resonance imaging (MRI) scanner (Bruker BioSpin MRI GmbH, Ettlingen, Germany). Mice were anesthetized using isoflurane mixed with oxygen (1-2%) and the respiration rate was monitored. Each MRI was acquired with a mouse brain surface receive coil positioned over the mouse head and placed inside a 72 mm transmit/receive coil. After the localizer, a T2-weighted turbo spin echo sequence was performed in the coronal (TR/TE=2290/41 ms, matrix size=192×256, slice thickness 0.5 mm, number of slices=14) and axial (TR/TE=3841/50 ms, matrix size=192×144, slice thickness 0.4 mm, number of slices=42) orientations. The T2-weighted scans were used to position a 3.5×4.5×2.0 mm^3 voxel for spectroscopy in the midbrain to cover thalamus and hippocampus. […] The in vivo ^1H MRS data were quantified as the Metabolite to tCr ratio using LCModel software (v.6.3), a widely applied MRS analysis tool that employs a least-squares-based prior-knowledge fitting program. The concentration of metabolites was measured using the unsuppressed water peak as a concentration standard. […]
Data analysis: Statistical significance (p values) was determined using a two-tailed Student's t test using GraphPad software. The MRS parameters were analyzed using ‘R’ 4.0.2 and the mean values and standard deviations were calculated for each group of mice. […]

[10] = tested on: Pcca^−/−PCCA(A138T)^tg/0 mice; test: Plasma and urine metabolites (TCA cycle intermediates) in Pcca−/−PCCA(A138T)tg/0 mice; assay type: in vivo; conditions: 22.5 ppm (3 mg/kg) in chow
Description: The mice were maintained at 72′±2° F., humidity 50%±10% and a 14-hour light/10-hour dark cycle with the dark cycle starting at 20:00 hrs. Water was supplied ad libitum. The mice were randomized into the treatment arms to achieve a normal weight distribution. […] Blood was collected in ethylenediaminetetraacetic acid (EDTA) at P50 by cardiac puncture from isoflurane-anesthetized animals, plasma was prepared and stored frozen at −80° C. until analysis. Liver, brain, and heart were quickly excised, immediately flash frozen in liquid nitrogen and stored frozen at −80° C. until analysis.
Metabolites from Urine and Plasma: Water was added to thawed 24-hr urine samples to a final volume of 1 mL for each mouse. To 100 μL of urine or 20 μL of plasma, warfarin standard was added at a final concentration of 0.2 μM and the sample was incubated at −80° C. for 1 hour. The sample was centrifuged at 6000×g for 10 minutes to remove precipitants and the supernatant was analyzed by LC/MS/MS. Analysis was performed using a Shimadzu Prominence UFLC attached to a QTrap 4500 equipped with a Turbo V ion source (Sciex). […] The system was controlled by the Analyst® software (Sciex) and analyzed with MultiQuant™ 3.0.2 software (Sciex). The relative amount of metabolite was normalized to the amount of warfarin then the ratio to creatinine was calculated.

**Q.** For `O=C(Cc1ccc(C2CC2)c(F)c1)N1CCN(c2ccc(Cl)nn2)CC1` [Compound (I), 1-(4-(6-chloropyridazin-3-yl)piperazin-1-yl)-2-(4-cyclopropyl-3-fluorophenyl)ethan-1-one], which “Accumulation after multiple doses” value [1] is on record?
**A.** Less than 2 fold

**Q.** And the “Probability of survival at postnatal day 90” value [2]?
**A.** ~94%

**Q.** What about the NOAEL at 13 weeks (in vivo [3]) of the same molecule?
**A.** 8 mg/kg/day

**Q.** What about the clearance (in vivo [4]; iv) of the same molecule?
**A.** 19.7 mL/min/kg

**Q.** What about the bioavailability (in vivo [4]; po) of the same molecule?
**A.** 17.6%

**Q.** What about the “Probability of survival at postnatal Day 45” value [5] of the same molecule?
**A.** −70%

**Q.** What about the “Blood brain barrier penetration” value [6] of the same molecule?
**A.** crossed the blood brain barrier

**Q.** And the “C2-CoA in liver, brain and heart” value [7]?
**A.** rescued to wild-type levels

**Q.** What about the clearance (in vivo [8]; iv) of the same molecule?
**A.** 16.9 mL/min/kg

**Q.** And the bioavailability (in vivo [8]; po)?
**A.** 29.8%

**Q.** What about the “GABA (GABA/tCr)” value [9] of the same molecule?
**A.** 0.40 ± 0.02

**Q.** What about the “Levels of methylcitrate, methylmalonate and α-ketoglutarate in plasma” value [10] of the same molecule?
**A.** reduced
